# Reference: patent US20060167098A1, “Method for the treatment of diseases linked to an accumulation of triglycerides and cholesterol” (Institut National De La Sante ET De LA Recherche Medicale …, priority 2003, published 2006)
# Experiments:
# Type in all cases: in vivo
# [1] = Body fat mass by DEXA in Swiss (lean) mice, standard diet, fasted 48 hours before measurement; conditions: for decrease of body fat mass: 100 mg/kg/day in drinking water, vs control; for decrease of body fat mass / body fat mass: fasted 48 h; for body fat mass: mean±SEM
# Description: (§1) Six to 8 weeks old male (Crl:CD-1(ICR)BR) Swiss mice, and six to ten weeks old male RjOrl Swiss mice (i.e. lean mice) weighing 28 and 32 grams were purchased from Dépré (Saint Doulchard, France). Ten to 12 weeks old ob/ob male (C57BL/6-ob) mice (i.e. obese mice), weighing 40 to 44 grams were purchased from Janvier (Le-Genest-St-Isle, France). In one experiment, younger ob/ob mice (5-6 weeks old) weighing 25-26 grams were also studied. In genetically obese ob/ob mice, a mutation on the gene of leptin prevents the normal production of this hormone, thus increasing appetite and decreasing energy consumption (Friedman J. M., Halaas J. L., 1998, Nature 395 : 763-770). […] The animals were acclimatized for one to two weeks before the start of experiments.
# (§2) D,L-β-Aminoisobutyric acid (BAIBA) was purchased from Sigma-Aldrich. BAIBA has been administered in drinking water at the dose of 100 mg/kg/day or 500 mg/kg/day for 6 weeks, 2 months or 4 months according to the experiments.
# (§3) The in vivo determination of body fat mass in anesthetized mice has been performed by “DEXA” (Dual Energy X-ray Absorptiometry) (Pietriobelli A., Formica C., Wang Z., Heymsfield S. B., 1996, Am. J. Physiol. 271 (Endocrinol. Metab. 34): E941-E951)). […] It is noteworthy that DEXA also gives for each investigated animal its lean mass that is the total amount of water and proteins (in grams) in the body (excluding the head). Therefore, for a given animal, DEXA allows the determination of the percentage of body fat which is its body fat mass divided by the sum of its body lean and fat masses (fat mass/(lean mass+fat mass)). The “DEXA” apparatus was a Piximus® from Lunar Corporation (Madison, Wis.). Mice were anesthetized thanks to a mixture of xylazine and ketamine.
# Procedure 2: the animals were fasted for 48 hours before DEXA measurements which have been performed 2 weeks (T2) and 6 weeks (T6) after starting the treatment. In this procedure, DEXA measurement before the beginning of treatment has not been performed. Comparisons of the different parameters (e.g. fat mass, body weight) between both groups were performed at T2 and at T6.
# In a first series of experiments, the effects of 100 mg/kg/day of β-aminoisobutyric acid (BAIBA) on body fat were investigated in Swiss (lean) mice fed with a standard diet (A04 chow) and fasted for 48 hours before DEXA measurements. Mice were 6 to 8 weeks old at the beginning of the experiment. DEXA was performed twice after the initiation of the treatment. In this experiment, BAIBA decreased body fat mass by 31% and 25%, respectively after 2 and 6 weeks of treatment. The results in FIG. 1 indicate that: • after 2 weeks, body fat mass was 2.63±0.23 and 1.80±0.11 grams, respectively in control mice (n=7) and mice receiving BAIBA (n=7); • after 6 weeks, body fat mass was 3.40±0.27 and 2.56±0.32 grams, respectively in control mice and mice receiving BAIBA.
# [2] = Body fat mass by DEXA in genetically obese ob/ob mice; conditions: 100 mg/kg/day
# Description: as §1, §2, §3
# Procedure 1: the animals were not fasted before DEXA investigations. The first DEXA measurement was performed one day before the beginning of the investigation (T0). Afterwards, DEXA measurements have been respectively performed two weeks (T2) and six weeks (T6) after the beginning of the treatment. […]
# [3] = Liver histology, liver triglycerides and ALT in ob/ob mice treated for 4 months, not fasted; conditions: for plasma alanine aminotransferase (ALT): after 4 months
# Experimental: Total lipids and triglycerides in the liver of animals were assessed according to a procedure partially reported by (Letteron P., Fromenty B., Terris B., Degott C., Pessayre D., 1996, J. Hepatol. 24 : 200-208). Briefly, after killing of the animals, livers were removed and homogenized in sterile water. Hepatic lipids were thus extracted by a mixture of chloroform and methanol (2/1; v/v). After removal of the aqueous phase, the organic phase (chloroform containing the lipids) was evaporated and the amount of lipids was determined by gravimetry. Lipids were subsequently resuspended in isopropanol (final concentration, ca. 10 mg/mL). After removal of the phopholipids by using aluminum hydroxide hydrate, triglycerides were determined colorimetrically by using periodate and the Nash's reagent (containing acetylacetone, ammonium acetate and isopropanol). The reaction generates diacetyldihydrolutidine which is assayed by spectrophotometry (λ=410 nm).
# Plasma HDL-cholesterol and alanine aminotransferase (ALT) were measured on an automatic analyser (Olympus AU400®) with commercial kits (Olympus Diagnostica GmbH, references OSR6187 and OSR6107, respectively).
# Finally, liver histology was performed according to regular procedure. Steatosis and fibrosis were assessed thanks to the Oil red O and Masson's trichrome stains, respectively, whereas necrosis and inflammation were determined thanks to the HPS (Hematoxylin-Phloxin-Saffron) stain, or the HE (Hematoxylin-Eosin) stain. In one experiment, perisinusoidal fibrosis was assessed with the Sirius Red stain.
# In a second series of investigations, liver histology was studied in ob/ob mice treated for 4 months with β-aminoisobutyric acid, administered either at the usual dose (100 mg/kg/day) or at a higher dose (500 mg/kg/day). In this experiment, liver examination was performed in mice not submitted to a fasting period before sacrifice. The number of investigated animals were 6, 7 and 8, respectively in the control group and in the groups treated with 100 and 500 mg/kg/day of β-aminoisobutyric acid.
smiles,measurement,setting,value
"CC(CN)C(=O)O (racemic) [BAIBA, D,L-β-Aminoisobutyric acid]",decrease of body fat mass,[1]; after 2 weeks,31%
same,decrease of body fat mass,[1]; after 6 weeks,25%
same,body weight vs control mice,"[1]; 100 mg/kg/day, after 2 and 6 weeks",not significantly different
same,body fat mass,"[1]; 100 mg/kg/day, after 2 weeks",1.80±0.11 grams
same,body fat mass,"[1]; 100 mg/kg/day, after 6 weeks",2.56±0.32 grams
same,gain of body fat,"[2]; 10-12 weeks old ob/ob mice, first two weeks",4.65±0.35 grams
same,reduction of body fat,"[2]; 10-12 weeks old ob/ob mice, first two weeks, not significant",11%
same,gain of body fat,"[2]; ob/ob mice, T0-T6",7.30±0.61 grams
same,liver triglycerides,"[3]; 100 mg/kg/day, 4 months",721±16 mg/g of lipids
same,mice with inflammation,"[3]; 100 mg/kg/day, 4 months",43%
same,mice with necrosis,"[3]; 100 mg/kg/day, 4 months",43%
same,mice with perisinusoidal fibrosis,"[3]; 100 mg/kg/day, 4 months",29%
same,mice with portal or perivenular fibrosis,"[3]; 100 mg/kg/day, 4 months",29%
same,plasma alanine aminotransferase (ALT),[3]; 100 mg/kg/day,290±61 U/L
same,liver triglycerides,"[3]; 500 mg/kg/day, 4 months",707±29 mg/g of lipids
same,plasma alanine aminotransferase (ALT),[3]; 500 mg/kg/day,258±27 U/L
same,extent of steatosis vs control,"[3]; 100 and 500 mg/kg/day, 4 months, not fasted",about the same extent
